# Reference: article PMC8185074, “Anchor extension: a structure-guided approach to design cyclic peptides targeting enzyme active sites” (Nature Communications, 2021)
# Peptide text beside a SMILES is read from it.
# Tests used:
# HDAC6 = target: T1, HDAC6 (Homo sapiens, UniProt Q9UBN7); experiment: HDAC6 inhibition, full IC50 measurement (Reaction Biology; fluorogenic p53 peptide RHKK(Ac)AMC); format: biochemical
# T1 construct: purchased Reaction Biology Corporation (assay run by the CRO)
# T1 sequence (Q9UBN7 1-1215): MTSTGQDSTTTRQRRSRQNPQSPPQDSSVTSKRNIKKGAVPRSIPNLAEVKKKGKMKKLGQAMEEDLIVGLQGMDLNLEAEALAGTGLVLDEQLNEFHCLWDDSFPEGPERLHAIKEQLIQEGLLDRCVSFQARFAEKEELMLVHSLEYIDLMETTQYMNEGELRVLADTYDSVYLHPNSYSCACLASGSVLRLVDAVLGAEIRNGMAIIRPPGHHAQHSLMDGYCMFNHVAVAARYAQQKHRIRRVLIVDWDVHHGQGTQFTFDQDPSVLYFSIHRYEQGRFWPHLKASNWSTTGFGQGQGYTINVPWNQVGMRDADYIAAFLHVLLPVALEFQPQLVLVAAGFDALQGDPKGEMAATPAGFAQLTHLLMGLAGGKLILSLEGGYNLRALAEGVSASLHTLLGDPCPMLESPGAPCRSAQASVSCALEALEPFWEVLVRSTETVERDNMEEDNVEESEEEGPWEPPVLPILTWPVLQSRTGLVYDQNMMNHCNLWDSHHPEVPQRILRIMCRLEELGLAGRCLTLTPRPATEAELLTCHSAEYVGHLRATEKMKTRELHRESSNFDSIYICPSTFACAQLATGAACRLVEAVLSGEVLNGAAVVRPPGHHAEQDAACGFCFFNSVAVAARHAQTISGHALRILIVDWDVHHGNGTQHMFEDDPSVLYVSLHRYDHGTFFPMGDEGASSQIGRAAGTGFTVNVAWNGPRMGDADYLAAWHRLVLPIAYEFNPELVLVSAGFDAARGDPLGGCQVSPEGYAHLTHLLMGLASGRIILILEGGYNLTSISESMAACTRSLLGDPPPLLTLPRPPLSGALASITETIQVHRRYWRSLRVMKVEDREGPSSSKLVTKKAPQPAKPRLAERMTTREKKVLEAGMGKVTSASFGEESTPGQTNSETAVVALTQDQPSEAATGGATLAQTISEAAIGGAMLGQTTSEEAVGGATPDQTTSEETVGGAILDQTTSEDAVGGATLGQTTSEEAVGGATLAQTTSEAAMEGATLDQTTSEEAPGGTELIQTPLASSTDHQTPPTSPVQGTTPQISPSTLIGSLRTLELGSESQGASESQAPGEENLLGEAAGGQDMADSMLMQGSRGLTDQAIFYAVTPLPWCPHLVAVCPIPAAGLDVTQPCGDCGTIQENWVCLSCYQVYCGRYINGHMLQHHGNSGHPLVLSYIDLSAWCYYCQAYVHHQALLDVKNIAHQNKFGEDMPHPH
# Method in brief: (§1)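 Deacetylation of 50 μM RHKK(Ac)AMC is measured after 1 h at 30 °C in pH 8.0 Tris buffer (1% DMSO, 1 mg/ml BSA). Developer ends the reaction; the post-plateau 360/460 nm signal is fitted to IC50, averaging replicate measurements.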
# HDAC3 = target: T2, HDAC3 (Homo sapiens, UniProt O15379); experiment: HDAC3 inhibition, full IC50 measurement (Reaction Biology; fluorogenic p53 peptide RHKK(Ac)AMC); format: biochemical
# T2 construct: purchased Reaction Biology Corporation (assay run by the CRO)
# T2 sequence (O15379 whole entry): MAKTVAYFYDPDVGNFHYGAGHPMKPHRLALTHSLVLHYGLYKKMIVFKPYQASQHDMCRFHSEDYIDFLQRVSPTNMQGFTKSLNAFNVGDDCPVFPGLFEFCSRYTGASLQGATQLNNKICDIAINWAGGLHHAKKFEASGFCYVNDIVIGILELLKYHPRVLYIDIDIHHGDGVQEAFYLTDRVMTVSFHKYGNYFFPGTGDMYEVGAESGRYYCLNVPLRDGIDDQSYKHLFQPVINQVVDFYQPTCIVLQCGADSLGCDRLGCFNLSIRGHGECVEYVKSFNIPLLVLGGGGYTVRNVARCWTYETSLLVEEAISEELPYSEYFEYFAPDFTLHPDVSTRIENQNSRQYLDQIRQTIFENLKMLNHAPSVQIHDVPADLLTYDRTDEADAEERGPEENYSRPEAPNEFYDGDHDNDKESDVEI
# T2 sequence (Q9Y618 395-489 partner limits assumed): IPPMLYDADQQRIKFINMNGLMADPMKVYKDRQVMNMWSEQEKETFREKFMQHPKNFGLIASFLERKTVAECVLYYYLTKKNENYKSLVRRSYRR
# Method in brief: as §1
smiles,measurement,setting,value
"N=C(N)NCCC[C@H]1NC(=O)[C@@H]2CCCN2C(=O)[C@H](CO)NC(=O)[C@@H](Cc2c[nH]cn2)NC(=O)[C@H](CCCCCS)NC(=O)[C@H](CCCCN)NC(=O)[C@H](Cc2ccc(O)cc2)NC(=O)[C@H]2CCCN2C(=O)[C@@H](CCC(N)=O)NC1=O [des3.1.0, SHA-dHis-Ser-Pro-dArg-dGln-dPro-Tyr-Lys] (HELM PEPTIDE1{K.[O=C([C@H](CCCCCS)N[*:1])[*:2]].[dH].S.P.[dR].[dQ].[dP].Y}$PEPTIDE1,PEPTIDE1,1:R1-9:R2$$$V2.0)",HDAC6 activity raw data (signal),"HDAC6; Conc. 1.00E-05 M, t1",11537
same,HDAC6 activity raw data (signal),"HDAC6; Conc. 1.00E-05 M, t2",13038
same,HDAC6 activity raw data (signal),"HDAC6; Conc. 1.11E-06 M, t1",76742
same,HDAC6 activity raw data (signal),"HDAC6; Conc. 1.11E-06 M, t2",90822
same,HDAC6 activity raw data (signal),"HDAC6; Conc. 1.23E-07 M, t1",159657
same,HDAC6 activity raw data (signal),"HDAC6; Conc. 1.23E-07 M, t2",168002
same,HDAC6 activity raw data (signal),"HDAC6; Conc. 1.37E-08 M, t1",160112
same,HDAC6 activity raw data (signal),"HDAC6; Conc. 1.37E-08 M, t2",166776
same,HDAC6 activity raw data (signal),"HDAC6; Conc. 1.52E-09 M, t1",119928
same,HDAC6 activity raw data (signal),"HDAC6; Conc. 1.52E-09 M, t2",158551
same,HDAC6 activity raw data (signal),"HDAC6; Conc. 3.33E-06 M, t1",37434
same,HDAC6 activity raw data (signal),"HDAC6; Conc. 3.33E-06 M, t2",38190
same,HDAC6 activity raw data (signal),"HDAC6; Conc. 3.70E-07 M, t1",143033
same,HDAC6 activity raw data (signal),"HDAC6; Conc. 3.70E-07 M, t2",130317
same,HDAC6 activity raw data (signal),"HDAC6; Conc. 4.12E-08 M, t1",144961
same,HDAC6 activity raw data (signal),"HDAC6; Conc. 4.12E-08 M, t2",163766
same,HDAC6 activity raw data (signal),"HDAC6; Conc. 4.57E-09 M, t1",147758
same,HDAC6 activity raw data (signal),"HDAC6; Conc. 4.57E-09 M, t2",164399
same,HDAC6 activity raw data (signal),"HDAC6; Conc. 5.08E-10 M, t1",111941
same,HDAC6 activity raw data (signal),"HDAC6; Conc. 5.08E-10 M, t2",129043
same,HDAC3 activity raw data (signal),"HDAC3; Conc. 1.00E-05 M, t1",46436
same,HDAC3 activity raw data (signal),"HDAC3; Conc. 1.00E-05 M, t2",68834
same,HDAC3 activity raw data (signal),"HDAC3; Conc. 1.11E-06 M, t1",407446
same,HDAC3 activity raw data (signal),"HDAC3; Conc. 1.11E-06 M, t2",414242
same,HDAC3 activity raw data (signal),"HDAC3; Conc. 1.23E-07 M, t1",842197
same,HDAC3 activity raw data (signal),"HDAC3; Conc. 1.23E-07 M, t2",849517
same,HDAC3 activity raw data (signal),"HDAC3; Conc. 1.37E-08 M, t1",932057
same,HDAC3 activity raw data (signal),"HDAC3; Conc. 1.37E-08 M, t2",998355
same,HDAC3 activity raw data (signal),"HDAC3; Conc. 1.52E-09 M, t1",936917
same,HDAC3 activity raw data (signal),"HDAC3; Conc. 1.52E-09 M, t2",1040178
same,HDAC3 activity raw data (signal),"HDAC3; Conc. 3.33E-06 M, t1",127237
same,HDAC3 activity raw data (signal),"HDAC3; Conc. 3.33E-06 M, t2",217535
same,HDAC3 activity raw data (signal),"HDAC3; Conc. 3.70E-07 M, t1",580195
same,HDAC3 activity raw data (signal),"HDAC3; Conc. 3.70E-07 M, t2",672322
same,HDAC3 activity raw data (signal),"HDAC3; Conc. 4.12E-08 M, t1",931839
same,HDAC3 activity raw data (signal),"HDAC3; Conc. 4.12E-08 M, t2",959771
same,HDAC3 activity raw data (signal),"HDAC3; Conc. 4.57E-09 M, t1",999086
same,HDAC3 activity raw data (signal),"HDAC3; Conc. 4.57E-09 M, t2",1037845
same,HDAC3 activity raw data (signal),"HDAC3; Conc. 5.08E-10 M, t1",932822
same,HDAC3 activity raw data (signal),"HDAC3; Conc. 5.08E-10 M, t2",1013267
